Measurements: patent US20250327110A1, “HIGH THROUGHPUT MULTIPLEXED SERUM BASED BACTERICIDAL ASSAYS (SBAs), AND KITS FOR USE THEREIN” (priority 2024, published 2025)

Columns and labels:
[1] = tested on: SNP0001 (flexneri 2a, parent 2457T); experiment: antibiotic sensitivity of mSBA target strain SNP0001; type: cell-based, Shigella flexneri; conditions: strain SNP0001 (flexneri 2a)
From the text: (§1) Strains 2457T (S. flexneri 2a) and SNP0006 (S. flexneri 6) were made resistant to streptomycin and nalidixic acid, respectively, by natural selection as previously described (Burton, R. L. and M. H. Nahm, “Development and validation of a fourfold multiplexed opsonization assay (MOPA4) for pneumococcal antibodies”, Clin Vaccine Immunol, 2006. 13(9): p. 1004-9). Strain J17B (S. flexneri 3a) was made kanamycin resistant by transduction with a nadC:kan fusion gene with P1 phage (Prunier, A. L., et al., “Genetic structure of the nadA and nadB antivirulence loci in Shigella spp.”, J Bacteriol, 2007. 189(17): p. 6482-6), which was obtained from a S. flexneri 2a strain (BS655) (personal communication with Dr. C. Turnbough at UAB).
(§2) To prepare working stocks for the target strains, primary stocks were streaked onto blood agar plates and incubated at 37° C./5% CO2. After overnight culture, multiple colonies were transferred to liquid culture medium (Todd-Hewitt broth with 0.5% yeast extract) and grown at 37° C. until cultures reached an OD600 of 0.5-1.4. After reaching the desired OD, glycerol was added to a final concentration of 16%, and 0.5-ml aliquots were prepared and stored at ≤−60° C. until needed. Each WS was tested to confirm the antibiotic sensitivity/resistance profile and to determine the optimal dilution of bacteria to use for the assay.
(§3) All target strains were tested individually in assay conditions for growth on plates containing antibiotics.

[2] = tested on: SNP0004 (flexneri 3a, parent J17B); experiment: antibiotic sensitivity of mSBA target strain SNP0004; type: cell-based, Shigella flexneri; conditions: strain SNP0004 (flexneri 3a)
From the text: as §1, §2, §3

S. sonnei strain Moseley = type: cell-based, Shigella sonnei; conditions: for Antibiotic Sensitivity: strain Moseley (sonnei); for antibiotic resistance screening: strain Moseley, natural resistance
From the text: as §1, §2, §3

[3] = tested on: SNP0006 (flexneri 6, parent CCH060); experiment: antibiotic sensitivity of mSBA target strain SNP0006; type: cell-based, Shigella flexneri; conditions: strain SNP0006 (flexneri 6)
From the text: as §1, §2, §3

| SMILES | Antibiotic Sensitivity [1] | Antibiotic Sensitivity [2] | Antibiotic Sensitivity (S. sonnei strain Moseley) | antibiotic resistance screening (S. sonnei strain Moseley) | Antibiotic Sensitivity [3] |
| --- | --- | --- | --- | --- | --- |
| C[C@H]1c2cccc(O)c2C(O)=C2C(=O)[C@]3(O)C(O)=C(C(N)=O)C(=O)[C@@H](N(C)C)[C@@H]3[C@@H](O)[C@@H]21 [Dox, doxycycline] | S | S | R | naturally resistant | S |
| NC[C@H]1O[C@H](O[C@H]2[C@H](O)[C@@H](O[C@H]3O[C@H](CO)[C@@H](O)[C@H](N)[C@H]3O)[C@H](N)C[C@@H]2N)[C@H](O)[C@@H](O)[C@@H]1O [Kan, kanamycin] | S | R | S | – | S |
| CCn1cc(C(=O)O)c(=O)c2ccc(C)nc21 [NA, nalidixic acid] | S | S | S | sensitive | R |
| [H]/N=C(/N)N[C@H]1[C@H](O)[C@@H](O)[C@H](O[C@@H]2O[C@@H](C)[C@](O)(C=O)[C@H]2O[C@@H]2O[C@@H](CO)[C@H](O)[C@@H](O)[C@@H]2NC)[C@@H](N/C(N)=N\[H])[C@@H]1O [Strep, streptomycin] | R | S | S | sensitive | S |
